Assays:
[1] = target: T1, Glutamate receptor ionotropic, AMPA (Rattus norvegicus, UniProt P19490+P19491+P19492+P19493); assay: Displacement of [3H]AMPA from Ionotropic glutamate receptor AMPA.; assay type: protein-complex assay
[2] = target: Glutamate receptor ionotropic, NMDA 1 (Rattus norvegicus, UniProt P35439); assay: Displacement of [3H]glycine from glycine site on the NMDA receptor.
[3] = target: T1, Glutamate receptor ionotropic, AMPA; assay: Compound was tested for its ability to displace [3H]-AMPA from AMPA receptor; assay type: protein-complex assay
Glutamate NMDA receptor = assay: Compound was tested for its ability to displace [3H]glycine from glycine site on the N-methyl-D-aspartate glutamate receptor; assay type: protein-complex assay

SMILES | Ki [1] | Ki [2] | Ki [3] | Ki (Glutamate NMDA receptor)
CCc1nnc2c(O)nc3cc(Cl)c(Cl)cc3n12 | 4.78 µM | 4.58 µM |  | 
O=[N+]([O-])c1ccc2c(c1)nc(O)c1nnnn12 | > 10 µM | > 10 µM |  | 
Oc1nc2cc(Cl)c(Cl)cc2c2ccnn12 | > 10 µM | > 10 µM |  | 
CCCc1nnc2c(O)nc3cc(Cl)c(Cl)cc3n12 |  | 3.92 µM |  | 
O=c1[nH]c2ccc([N+](=O)[O-])cc2n2nnnc12 | > 10 µM | > 10 µM |  | 
O=c1[nH]c2cc(Cl)ccc2c2ccnn12 | > 10 µM | > 10 µM |  | 
O=[N+]([O-])c1cc2nc(O)c3nncn3c2cc1[N+](=O)[O-] |  |  | 5.49 µM | 5.12 µM
Cc1nnc2c(=O)[nH]c3cc(Cl)c(Cl)cc3n12 | 4.45 µM | > 10 µM |  | 
Oc1nc2cc(Cl)c(Cl)cc2n2c(-c3ccccc3)nnc12 | > 10 µM | > 10 µM |  | 
Oc1nc2cc(Cl)cc(Cl)c2n2cnnc12 | 3.24 µM | 2.85 µM |  | 
O=[N+]([O-])c1cc2nc(O)c3nnnn3c2cc1[N+](=O)[O-] |  |  | > 10 µM | > 10 µM
Oc1nc2cc(Cl)c(Cl)cc2nc1O [2,3-DIHYDROXY-6,7-DICHLOROQUINOXALINE] | 1.64 µM | 0.21 µM |  | 
O=c1[nH]c2cc([N+](=O)[O-])c([N+](=O)[O-])cc2[nH]c1=O [DNQX] |  |  |  | 0.39 µM

Second part, led by results:

Ki [1] | Ki [2] | SMILES | Ki [3] | Ki (Glutamate NMDA receptor)
> 10 µM | > 10 µM | Oc1nc2cc(Cl)c(Cl)cc2n2nnnc12 |  | 
1.71 µM | 1.48 µM | CCCCc1nnc2c(=O)[nH]c3cc(Cl)c(Cl)cc3n12 |  | 
4.69 µM | 0.63 µM | Oc1nc2cc(Cl)c(Cl)cc2n2cnnc12 |  | 
> 10 µM | > 10 µM | O=c1[nH]c2cc(F)c(F)cc2n2cnnc12 |  | 
0.99 µM | 7.35 µM | O=[N+]([O-])c1ccc2c(c1)nc(O)c1nncn12 |  | 
7.38 µM | 1.26 µM | Oc1nc2cc(Cl)c(Cl)cc2n2ccnc12 |  | 
> 10 µM | > 10 µM | Oc1nc2cc(Cl)c(Cl)cc2n2c(C(F)(F)F)nnc12 |  | 

Reference: ChEMBL document CHEMBL1125547, “Synthesis and excitatory amino acid pharmacology of a series of heterocyclic-fused quinoxalinones and quinazolinones” (J Med Chem, 1992)
